Laboratory results reported in ChEMBL document CHEMBL4699602, “Stapled and Xenopus Glucagon-Like Peptide 1 (GLP-1)-Based Dual GLP-1/Gastrin Receptor Agonists with Improved Metabolic Benefits in Rodent Models of Obesity and Diabetes” (J Med Chem, 2020).
The source made the active and inactive calls. No cut-off for these calls is given here. Where a SMILES comes first, the peptide text is derived from it.

Tests used:
Mus musculus = assay: Hypoglycemic activity in ICR mouse assessed as decrease in blood glucose concentration at 25 nmol/kg, ip dosed 15 mins before test and measured up to 120 mins by OGTT method; format: functional, organism-based
[1] = target: T1, Glucagon-like peptide 1 receptor (Homo sapiens, UniProt P43220); assay: Agonist activity at human GLP-1R expressed in HEK293 cells assessed as stimulation of cAMP accumulation incubated for 20 mins; format: functional, cell-based
T1 sequence (P43220 whole entry): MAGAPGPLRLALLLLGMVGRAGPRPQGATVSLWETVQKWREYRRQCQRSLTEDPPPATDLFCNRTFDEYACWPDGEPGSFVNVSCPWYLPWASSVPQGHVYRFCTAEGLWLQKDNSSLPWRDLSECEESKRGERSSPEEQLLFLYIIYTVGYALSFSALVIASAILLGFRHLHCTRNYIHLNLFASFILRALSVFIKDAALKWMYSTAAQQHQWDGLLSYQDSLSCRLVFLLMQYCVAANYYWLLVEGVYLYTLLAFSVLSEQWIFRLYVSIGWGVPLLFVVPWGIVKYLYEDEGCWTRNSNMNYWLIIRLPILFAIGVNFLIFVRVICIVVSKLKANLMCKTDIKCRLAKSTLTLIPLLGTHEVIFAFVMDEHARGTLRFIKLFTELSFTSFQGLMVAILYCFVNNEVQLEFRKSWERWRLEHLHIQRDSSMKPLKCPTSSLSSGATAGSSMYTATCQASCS

[2] = target: T1, Glucagon-like peptide 1 receptor; assay: Agonist activity at human GLP-1R expressed in HEK293 cells assessed as stimulation of cAMP accumulation incubated for 20 mins in presence of 0% HSA; format: functional, cell-based
[3] = target: T1, Glucagon-like peptide 1 receptor; assay: Ratio of EC50 for agonist activity at human GLP-1R expressed in HEK293 cells in presence of 4.4% HSA to EC50 for agonist activity at human GLP-1R expressed in HEK293 cells in presence of 0% HSA; format: cell-based
[4] = target: T1, Glucagon-like peptide 1 receptor; assay: Agonist activity at human GLP-1R expressed in HEK293 cells assessed as stimulation of cAMP accumulation incubated for 20 mins in presence of 4.4% HSA; format: functional, cell-based

EC50 [2]	Ratio EC50 [3]	EC50 [4]	Structure (SMILES)	Activity (Mus musculus)	EC50 [1]
0.12 nM	18.3	2.2 nM	CCCCCCCCCCCCCCCC(=O)NCCCCCCNC(=O)C1CCCCNC(=O)CCN2C(=O)CC(SC[C@@H](C(=O)NCC(=O)N[C@@H](CCCCN)C(N)=O)NC(=O)[C@H]([C@@H](C)CC)NC(=O)[C@H](CC(C)C)NC(=O)[C@H](Cc3c[nH]c4ccccc34)NC(=O)[C@H](CCC(=O)O)NC(=O)[C@H]([C@@H](C)CC)NC(=O)[C@H](Cc3ccccc3)NC(=O)[C@@H](NC(=O)[C@H](CCCCN)NC(=O)[C@H](C)NC(=O)[C@H](C)NC(=O)[C@H](CCC(=O)O)NC(=O)[C@H](CCC(=O)O)NC(=O)[C@H](CCC(=O)O)NC(=O)[C@H](CC(C)C)NC(=O)[C@H](Cc3ccc(O)cc3)NC(=O)[C@H](CCC(=O)O)NC(=O)[C@@H](NC(=O)[C@@H](NC(=O)[C@H](CC(=O)O)NC(=O)[C@H](CC(N)=O)NC(=O)[C@@H](NC(=O)[C@H](Cc3ccc(O)cc3)NC(=O)[C@@H](NC(=O)CNC(=O)[C@H](CCC(=O)O)NC(=O)C(C)(C)NC(=O)[C@@H](N)Cc3c[nH]cn3)[C@@H](C)O)[C@@H](C)O)C(C)C)[C@@H](C)O)CSC3CC(=O)N(CCC(=O)N1)C3=O)C2=O (some centres undefined) (HELM PEPTIDE1{H.[Aib].E.G.T.Y.T.N.D.V.T.E.Y.L.E.E.E.A.A.K.C.F.I.E.W.L.I.C.G.K.[am]}|CHEM1{[CCCCCCCCCCCCCCCC(=O)NCCCCCCNC(=O)C(CCCCNC(=O)CCN1C(=O)CC([*:2])C1=O)NC(=O)CCN1C(=O)CC([*:1])C1=O]}$PEPTIDE1,CHEM1,21:R3-1:R1|PEPTIDE1,CHEM1,28:R3-1:R2$$$V2.0)	–	–
0.19 nM	13.7	2.6 nM	CC[C@H](C)[C@@H]1NC(=O)[C@H](CC(C)C)NC(=O)[C@H](Cc2c[nH]c3ccccc23)NC(=O)[C@H](CCC(=O)O)NC(=O)[C@H]([C@@H](C)CC)NC(=O)[C@H](Cc2ccccc2)NC(=O)[C@@H](NC(=O)[C@H](CCCCN)NC(=O)[C@H](C)NC(=O)[C@H](C)NC(=O)[C@H](CCC(=O)O)NC(=O)[C@H](CCC(=O)O)NC(=O)[C@H](CCC(=O)O)NC(=O)[C@H](CC(C)C)NC(=O)[C@H](Cc2ccc(O)cc2)NC(=O)[C@H](CCC(=O)O)NC(=O)[C@@H](NC(=O)[C@@H](NC(=O)[C@H](CC(=O)O)NC(=O)[C@H](CC(N)=O)NC(=O)[C@@H](NC(=O)[C@H](Cc2ccc(O)cc2)NC(=O)[C@@H](NC(=O)CNC(=O)[C@H](CCC(=O)O)NC(=O)C(C)(C)NC(=O)[C@@H](N)Cc2c[nH]cn2)[C@@H](C)O)[C@@H](C)O)C(C)C)[C@@H](C)O)CSC2CC(=O)N(CCC(=O)NC(C(=O)NCCCCCCNC(=O)COCCOCCNC(=O)CCCCCCCCCCCCCCCCC(=O)O)CCCCNC(=O)CCN3C(=O)CC(SC[C@@H](C(=O)NCC(=O)N[C@@H](CCCCN)C(N)=O)NC1=O)C3=O)C2=O (some centres undefined) (HELM PEPTIDE1{H.[Aib].E.G.T.Y.T.N.D.V.T.E.Y.L.E.E.E.A.A.K.C.F.I.E.W.L.I.C.G.K.[am]}|CHEM1{[O=C(O)CCCCCCCCCCCCCCCCC(=O)NCCOCCOCC(=O)NCCCCCCNC(=O)C(CCCCNC(=O)CCN1C(=O)CC([*:2])C1=O)NC(=O)CCN1C(=O)CC([*:1])C1=O]}$PEPTIDE1,CHEM1,21:R3-1:R1|PEPTIDE1,CHEM1,28:R3-1:R2$$$V2.0)	–	–

The remaining lines, values behind:

Structure (SMILES)	EC50 [2]	Ratio EC50 [3]	EC50 [4]	Activity (Mus musculus)	EC50 [1]
CC[C@H](C)[C@H](NC(=O)[C@H](Cc1ccccc1)NC(=O)[C@H](CCC(=O)O)NC(=O)[C@H](CCCCN)NC(=O)[C@H](C)NC(=O)[C@H](C)NC(=O)[C@H](CCC(N)=O)NC(=O)CNC(=O)[C@H](CCC(=O)O)NC(=O)[C@H](CC(C)C)NC(=O)[C@H](Cc1ccc(O)cc1)NC(=O)[C@H](CO)NC(=O)[C@H](CO)NC(=O)[C@@H](NC(=O)[C@H](CC(=O)O)NC(=O)[C@H](CO)NC(=O)[C@@H](NC(=O)[C@H](Cc1ccccc1)NC(=O)[C@@H](NC(=O)CNC(=O)[C@H](CCC(=O)O)NC(=O)[C@H](C)NC(=O)[C@@H](N)Cc1cnc[nH]1)[C@@H](C)O)[C@@H](C)O)C(C)C)C(=O)N[C@@H](C)C(=O)N[C@@H](Cc1c[nH]c2ccccc12)C(=O)N[C@@H](CC(C)C)C(=O)N[C@H](C(=O)N[C@@H](CCCCN)C(=O)NCC(=O)N[C@@H](CCCNC(=N)N)C(=O)O)C(C)C	–	–	–	Active	–
CC[C@H](C)[C@H](NC(=O)[C@H](CC(C)C)NC(=O)[C@H](Cc1c[nH]c2ccccc12)NC(=O)[C@H](CCC(=O)O)NC(=O)[C@@H](NC(=O)[C@H](Cc1ccccc1)NC(=O)[C@H](CS)NC(=O)[C@H](CCCCN)NC(=O)[C@H](C)NC(=O)[C@H](C)NC(=O)[C@H](CCC(=O)O)NC(=O)[C@H](CCC(=O)O)NC(=O)[C@H](CCC(=O)O)NC(=O)[C@H](CS)NC(=O)[C@H](Cc1ccc(O)cc1)NC(=O)[C@H](CCC(=O)O)NC(=O)[C@@H](NC(=O)[C@@H](NC(=O)[C@H](CC(=O)O)NC(=O)[C@H](CC(N)=O)NC(=O)[C@@H](NC(=O)[C@H](Cc1ccc(O)cc1)NC(=O)[C@@H](NC(=O)CNC(=O)[C@H](CCC(=O)O)NC(=O)C(C)(C)NC(=O)[C@@H](N)Cc1c[nH]cn1)[C@@H](C)O)[C@@H](C)O)C(C)C)[C@@H](C)O)[C@@H](C)CC)C(=O)N[C@@H](CCCCN)C(=O)NCC(=O)N[C@@H](CCCCN)C(=O)N1CCC[C@H]1C(=O)N[C@@H](CO)C(=O)N[C@@H](CO)C(=O)NCC(=O)N[C@@H](C)C(=O)N1CCC[C@H]1C(=O)N1CCC[C@H]1C(=O)N1CCC[C@H]1C(=O)N[C@@H](CO)C(N)=O (HELM PEPTIDE1{H.[Aib].E.G.T.Y.T.N.D.V.T.E.Y.C.E.E.E.A.A.K.C.F.I.E.W.L.I.K.G.K.P.S.S.G.A.P.P.P.S.[am]}$$$$V2.0)	–	–	–	Active	0.042 nM
CC[C@H](C)[C@H](NC(=O)[C@H](CC(C)C)NC(=O)[C@H](Cc1c[nH]c2ccccc12)NC(=O)[C@H](CCC(=O)O)NC(=O)[C@@H](NC(=O)[C@H](Cc1ccccc1)NC(=O)[C@H](CS)NC(=O)[C@H](CCCCN)NC(=O)[C@H](C)NC(=O)[C@H](C)NC(=O)[C@H](CCC(=O)O)NC(=O)[C@H](CCC(=O)O)NC(=O)[C@H](CCC(=O)O)NC(=O)[C@H](CS)NC(=O)[C@H](Cc1ccc(O)cc1)NC(=O)[C@H](CCC(=O)O)NC(=O)[C@@H](NC(=O)[C@@H](NC(=O)[C@H](CC(=O)O)NC(=O)[C@H](CC(N)=O)NC(=O)[C@@H](NC(=O)[C@H](Cc1ccc(O)cc1)NC(=O)[C@@H](NC(=O)CNC(=O)[C@H](CCC(=O)O)NC(=O)C(C)(C)NC(=O)[C@@H](N)Cc1c[nH]cn1)[C@@H](C)O)[C@@H](C)O)C(C)C)[C@@H](C)O)[C@@H](C)CC)C(=O)N[C@@H](CCCCN)C(=O)NCC(=O)N[C@@H](CCCCN)C(N)=O (HELM PEPTIDE1{H.[Aib].E.G.T.Y.T.N.D.V.T.E.Y.C.E.E.E.A.A.K.C.F.I.E.W.L.I.K.G.K.[am]}$$$$V2.0)	–	–	–	Active	0.066 nM
CC[C@H](C)[C@@H]1NC(=O)[C@H](CC(C)C)NC(=O)[C@H](Cc2c[nH]c3ccccc23)NC(=O)[C@H](CCC(=O)O)NC(=O)[C@H]([C@@H](C)CC)NC(=O)[C@H](Cc2ccccc2)NC(=O)[C@@H](NC(=O)[C@H](CCCCN)NC(=O)[C@H](C)NC(=O)[C@H](C)NC(=O)[C@H](CCC(=O)O)NC(=O)[C@H](CCC(=O)O)NC(=O)[C@H](CCC(=O)O)NC(=O)[C@H](CC(C)C)NC(=O)[C@H](Cc2ccc(O)cc2)NC(=O)[C@H](CCC(=O)O)NC(=O)[C@@H](NC(=O)[C@@H](NC(=O)[C@H](CC(=O)O)NC(=O)[C@H](CC(N)=O)NC(=O)[C@@H](NC(=O)[C@H](Cc2ccc(O)cc2)NC(=O)[C@@H](NC(=O)CNC(=O)[C@H](CCC(=O)O)NC(=O)C(C)(C)NC(=O)[C@@H](N)Cc2c[nH]cn2)[C@@H](C)O)[C@@H](C)O)C(C)C)[C@@H](C)O)CSC2CC(=O)N(CCC(=O)NC(C(=O)NCCCCCCNC(=O)COCCOCCNC(=O)COCCOCCNC(=O)CCC(NC(=O)CCCCCCCCCCCCCCCCC(=O)O)C(=O)O)CCCCNC(=O)CCN3C(=O)CC(SC[C@@H](C(=O)NCC(=O)N[C@@H](CCCCN)C(N)=O)NC1=O)C3=O)C2=O (some centres undefined) (HELM PEPTIDE1{H.[Aib].E.G.T.Y.T.N.D.V.T.E.Y.L.E.E.E.A.A.K.C.F.I.E.W.L.I.C.G.K.[am]}|CHEM1{[O=C(O)CCCCCCCCCCCCCCCCC(=O)NC(CCC(=O)NCCOCCOCC(=O)NCCOCCOCC(=O)NCCCCCCNC(=O)C(CCCCNC(=O)CCN1C(=O)CC([*:2])C1=O)NC(=O)CCN1C(=O)CC([*:1])C1=O)C(=O)O]}$PEPTIDE1,CHEM1,21:R3-1:R1|PEPTIDE1,CHEM1,28:R3-1:R2$$$V2.0)	0.19 nM	95.8	18.2 nM	–	–
